Measurements published in ChEMBL document CHEMBL6092167, “Phosphorylation as an Effective Tool to Improve Stability and Reduce Toxicity of Antimicrobial Peptides” (J Med Chem, 2024).
In brackets after ≈: the same amount, converted by molar mass. Non-standard residues stand in square brackets, D forms with d. Residues, ends and D or L forms follow the SMILES beside them. Bip = N[C@@H](Cc1ccc(-c2ccccc2)cc1)C(=O)O; pY = N[C@@H](Cc1ccc(OP(=O)(O)O)cc1)C(=O)O; pT = C[C@@H](OP(=O)(O)O)[C@H](N)C(=O)O; 2Nal = N[C@@H](Cc1ccc2ccccc2c1)C(=O)O

How the values were obtained:
[1] = test system: Staphylococcus aureus; test: Antibacterial activity against methicillin resistant Staphylococcus aureus ATCC 33591 incubated for 18 to 24 hrs by broth microdilution method; assay type: functional; conditions: time 18-24 hrs
[2] = test system: Staphylococcus aureus; test: Antibacterial activity against methicillin resistant Staphylococcus aureus 48 incubated for 18 to 24 hrs by broth microdilution method; assay type: functional; conditions: time 18-24 hrs
[3] = test system: Staphylococcus aureus; test: Antibacterial activity against Staphylococcus aureus 794 incubated for 18 to 24 hrs by broth microdilution method; assay type: functional; conditions: time 18-24 hrs
[4] = test system: Escherichia coli; test: Antibacterial activity against Escherichia coli 780 incubated for 18 to 24 hrs by broth microdilution method; assay type: functional; conditions: time 18-24 hrs
[5] = test system: Escherichia coli; test: Antibacterial activity against Escherichia coli 850 incubated for 18 to 24 hrs by broth microdilution method; assay type: functional; conditions: time 18-24 hrs
[6] = test system: Pseudomonas aeruginosa; test: Antibacterial activity against Pseudomonas aeruginosa 119 incubated for 18 to 24 hrs by broth microdilution method; assay type: functional; conditions: time 18-24 hrs
[7] = test system: Staphylococcus aureus; test: Antibacterial activity against Staphylococcus aureus ATCC 25923 incubated for 18 to 24 hrs by broth microdilution method; assay type: functional; conditions: time 18-24 hrs
[8] = test system: Bacillus subtilis; test: Antibacterial activity against Bacillus subtilis ATCC 23857 incubated for 18 to 24 hrs by broth microdilution method; assay type: functional; conditions: time 18-24 hrs
[9] = test system: Escherichia coli; test: Antibacterial activity against Escherichia coli ATCC 25922 incubated for 18 to 24 hrs by broth microdilution method; assay type: functional; conditions: time 18-24 hrs
[10] = test system: Pseudomonas aeruginosa; test: Antibacterial activity against Pseudomonas aeruginosa ATCC 27853 incubated for 18 to 24 hrs by broth microdilution method; assay type: functional; conditions: time 18-24 hrs
[11] = test system: Klebsiella pneumoniae; test: Antibacterial activity against Klebsiella pneumoniae ATCC 700603 incubated for 18 to 24 hrs by broth microdilution method; assay type: functional; conditions: time 18-24 hrs
[12] = test system: Acinetobacter baumannii; test: Antibacterial activity against Acinetobacter baumannii ATCC 19606 incubated for 18 to 24 hrs by broth microdilution method; assay type: functional; conditions: time 18-24 hrs
[13] = Hemolytic activity in mouse erythrocyte incubated for 1 hr by microplate reader assay; assay type: toxicity, cell-based
[14] = Cytotoxicity against HEK293T cells incubated for 1 hr by fluorescence based microplate reader assay; assay type: toxicity, cell-based, HEK-293T; conditions: human

CC(C)C[C@H](NC(=O)[C@H](CC(C)C)NC(=O)[C@@H](NC(=O)[C@H](CCCCN)NC(=O)[C@H](CC(C)C)NC(=O)[C@H](CCCNC(=N)N)NC(=O)[C@H](CCCCN)NC(=O)[C@H](Cc1ccc(-c2ccccc2)cc1)NC(=O)[C@H](CC(C)C)NC(=O)CN)[C@@H](C)OP(=O)(O)O)C(N)=O (H-GL[Bip]KRLK[pT]LL-NH2)
MIC [1]: 54 µM (≈ 72.6 µg/mL) | MIC [2]: 32 µM (≈ 43 µg/mL) | MIC [3]: 16 µM (≈ 21.5 µg/mL) | MIC [4]: 16 µM (≈ 21.5 µg/mL) | MIC [5]: 32 µM (≈ 43 µg/mL) | MIC [6]: 32 µM (≈ 43 µg/mL) | MIC [7]: 64 µM (≈ 86 µg/mL) | MIC [8]: 16 µM (≈ 21.5 µg/mL) | MIC [9]: 32 µM (≈ 43 µg/mL) | MIC [10]: 16 µM (≈ 21.5 µg/mL) | MIC [11]: 64 µM (≈ 86 µg/mL) | MIC [12]: 32 µM (≈ 43 µg/mL) | MHC [13]: 125.83 µM | CC50 at 1 h [14]: 112 µM

CC(C)C[C@H](NC(=O)[C@H](CC(C)C)NC(=O)[C@@H](NC(=O)[C@H](CCCCN)NC(=O)[C@H](Cc1ccc2ccccc2c1)NC(=O)[C@H](CCCNC(=N)N)NC(=O)[C@H](CCCCN)NC(=O)[C@H](CC(C)C)NC(=O)[C@H](CC(C)C)NC(=O)CN)[C@@H](C)OP(=O)(O)O)C(N)=O (H-GLLKR[2Nal]K[pT]LL-NH2)
MIC [1]: > 128 µM | MIC [2]: > 128 µM | MIC [3]: 128 µM (≈ 169 µg/mL) | MIC [4]: > 128 µM | MIC [5]: 128 µM (≈ 169 µg/mL) | MIC [6]: 128 µM (≈ 169 µg/mL) | MIC [7]: > 128 µM | MIC [8]: 128 µM (≈ 169 µg/mL) | MIC [9]: > 128 µM | MIC [10]: 128 µM (≈ 169 µg/mL) | MIC [11]: > 128 µM | MIC [12]: 128 µM (≈ 169 µg/mL) | MHC [13]: > 256 µM | CC50 at 1 h [14]: > 128 µM

CC(C)C[C@H](NC(=O)[C@H](CC(C)C)NC(=O)[C@@H](NC(=O)[C@H](CCCCN)NC(=O)[C@H](Cc1ccc(-c2ccccc2)cc1)NC(=O)[C@H](CCCNC(=N)N)NC(=O)[C@H](CCCCN)NC(=O)[C@H](CC(C)C)NC(=O)[C@H](CC(C)C)NC(=O)CN)[C@@H](C)OP(=O)(O)O)C(N)=O (H-GLLKR[Bip]K[pT]LL-NH2)
MIC [1]: 128 µM (≈ 172 µg/mL) | MIC [2]: 128 µM (≈ 172 µg/mL) | MIC [3]: 32 µM (≈ 43 µg/mL) | MIC [4]: 32 µM (≈ 43 µg/mL) | MIC [5]: 64 µM (≈ 86 µg/mL) | MIC [6]: 128 µM (≈ 172 µg/mL) | MIC [7]: 128 µM (≈ 172 µg/mL) | MIC [8]: 32 µM (≈ 43 µg/mL) | MIC [9]: 64 µM (≈ 86 µg/mL) | MIC [10]: 64 µM (≈ 86 µg/mL) | MIC [11]: 128 µM (≈ 172 µg/mL) | MIC [12]: 64 µM (≈ 86 µg/mL) | MHC [13]: > 256 µM | CC50 at 1 h [14]: 131 µM

CC(C)C[C@H](NC(=O)[C@H](CC(C)C)NC(=O)[C@@H](NC(=O)[C@H](CCCCN)NC(=O)[C@H](CC(C)C)NC(=O)[C@H](CCCNC(=N)N)NC(=O)[C@H](CCCCN)NC(=O)[C@H](Cc1ccc(-c2ccccc2)cc1)NC(=O)[C@H](CC(C)C)NC(=O)CN)[C@@H](C)O)C(N)=O (H-GL[Bip]KRLKTLL-NH2)
MIC [1]: 8 µM (≈ 10.1 µg/mL) | MIC [2]: 8 µM (≈ 10.1 µg/mL) | MIC [3]: 8 µM (≈ 10.1 µg/mL) | MIC [4]: 8 µM (≈ 10.1 µg/mL) | MIC [5]: 8 µM (≈ 10.1 µg/mL) | MIC [6]: 8 µM (≈ 10.1 µg/mL) | MIC [7]: 8 µM (≈ 10.1 µg/mL) | MIC [8]: 8 µM (≈ 10.1 µg/mL) | MIC [9]: 8 µM (≈ 10.1 µg/mL) | MIC [10]: 8 µM (≈ 10.1 µg/mL) | MIC [11]: 8 µM (≈ 10.1 µg/mL) | MIC [12]: 8 µM (≈ 10.1 µg/mL) | MHC [13]: 47.48 µM | CC50 at 1 h [14]: 76.4 µM

H-GLLKRWKTLL-NH2
MIC [1]: 128 µM | MIC [2]: 128 µM | MIC [3]: 32 µM | MIC [4]: 32 µM | MIC [5]: 32 µM | MIC [6]: 32 µM | MIC [7]: > 128 µM | MIC [8]: 8 µM | MIC [9]: 64 µM | MIC [10]: 8 µM | MIC [11]: 64 µM | MIC [12]: > 128 µM | MHC [13]: > 256 µM | CC50 at 1 h [14]: > 128 µM

CC(C)C[C@H](NC(=O)[C@H](CC(C)C)NC(=O)[C@@H](NC(=O)[C@H](CCCCN)NC(=O)[C@H](CC(C)C)NC(=O)[C@H](CCCNC(=N)N)NC(=O)[C@H](CCCCN)NC(=O)[C@H](Cc1ccc2ccccc2c1)NC(=O)[C@H](CC(C)C)NC(=O)CN)[C@@H](C)OP(=O)(O)O)C(N)=O (H-GL[2Nal]KRLK[pT]LL-NH2)
MIC [1]: 128 µM (≈ 169 µg/mL) | MIC [2]: 128 µM (≈ 169 µg/mL) | MIC [3]: 64 µM (≈ 84.3 µg/mL) | MIC [4]: 32 µM (≈ 42.2 µg/mL) | MIC [5]: 64 µM (≈ 84.3 µg/mL) | MIC [6]: 64 µM (≈ 84.3 µg/mL) | MIC [7]: 128 µM (≈ 169 µg/mL) | MIC [8]: 32 µM (≈ 42.2 µg/mL) | MIC [9]: 64 µM (≈ 84.3 µg/mL) | MIC [10]: 32 µM (≈ 42.2 µg/mL) | MIC [11]: 128 µM (≈ 169 µg/mL) | MIC [12]: 64 µM (≈ 84.3 µg/mL) | MHC [13]: > 256 µM | CC50 at 1 h [14]: 131 µM

CC(C)C[C@H](NC(=O)[C@H](CC(C)C)NC(=O)[C@H](Cc1ccc(OP(=O)(O)O)cc1)NC(=O)[C@H](CCCCN)NC(=O)[C@H](Cc1c[nH]c2ccccc12)NC(=O)[C@H](CCCNC(=N)N)NC(=O)[C@H](CCCCN)NC(=O)[C@H](CC(C)C)NC(=O)[C@H](CC(C)C)NC(=O)CN)C(N)=O (H-GLLKRWK[pY]LL-NH2)
MIC [1]: > 128 µM | MIC [2]: > 128 µM | MIC [3]: 32 µM (≈ 43.8 µg/mL) | MIC [4]: 64 µM (≈ 87.6 µg/mL) | MIC [5]: 64 µM (≈ 87.6 µg/mL) | MIC [6]: 128 µM (≈ 175 µg/mL) | MIC [7]: > 128 µM | MIC [8]: 64 µM (≈ 87.6 µg/mL) | MIC [9]: 64 µM (≈ 87.6 µg/mL) | MIC [10]: 128 µM (≈ 175 µg/mL) | MIC [11]: 128 µM (≈ 175 µg/mL) | MIC [12]: 64 µM (≈ 87.6 µg/mL) | MHC [13]: > 256 µM | CC50 at 1 h [14]: > 128 µM
